This is an account of results in PubChem BioAssay AID463199 (Broad Institute, 2010).

Calls of active or inactive are those of the source.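 Rule for the calls: active = AC50, the dose giving half-maximal effect, exceeds a fixed cutoff for a compound that rescues yeast growth under heat; inactive = the rest, inconclusive results apart.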 Where only a bound is given, the exact number is not on record here.

In the test the test system is S. cerevisiae Burl-1 ts mutant growth, BacTiter-Glo, 38.5C 24 h. The test is described as follows: growth induction of Burl-1 ts yeast mutant, dose response, counter-screen for SUMOylation pathway inhibitor project, whole organism, S. cerevisiae, luminescence (AID 463199). Background: A counterscreen serves to expose hits that act by an unwanted route or on another target.
Take `O=C(CCN1CCc2ccccc2C1)Nc1ccc2c(c1)OCO2`: the AC50 (in general, the concentration at which the activity in the assay is half-maximal) is > 42 µM (inactive).
In the case of `CN1/C(=C\C(=O)COC(=O)c2ccc([N+](=O)[O-])o2)C(C)(C)c2ccccc21` it was > 42 µM (inactive); in that of `Cc1ccc(N/N=C2/CCCNC2=O)cc1`, > 42 µM (inactive).
For `Cc1cc(C)cc(NC(=O)CS(=O)(=O)c2ccccc2)c1`, the AC50 was > 42 µM (inactive).
Consider `Cc1ccc(CSCCNC(=O)c2ccc(NS(C)(=O)=O)cc2)cc1`, for which the AC50 is > 42 µM (inactive).
In the case of `CC(C)C(=O)NNc1ccc(C(F)(F)F)cn1` it was > 42 µM (inactive); in that of `O=C(CSc1nnc(-c2cccs2)n1-c1ccccc1)c1ccc2c(c1)OCCO2`, > 42 µM (inactive); in that of `COc1ccc(C(=O)NCCSc2ccc(C)cc2)cc1`, > 42 µM (inactive).
With `CCOC(=O)N1CCC(NS(=O)(=O)c2ccc(C)c(Cl)c2)CC1`, the AC50 is > 42 µM (inactive).
For `CCOCCn1c(-c2ccc(OC)cc2)nc2ccccc21`, the AC50 was > 42 µM (inactive).
Then `O=C(O)Cc1sc(Nc2ccccc2)nc1-c1cccs1`, with > 42 µM (inactive).
In the case of `Cc1ccc(N(C(C)C(=O)O)S(=O)(=O)c2c(C)n[nH]c2C)cc1` (stereo not given) it was > 42 µM (inactive).
`c1ccc(-c2nc(N3CCOCC3)c3ccccc3n2)nc1`: the AC50 was > 42 µM (inactive).
Then `COC(=O)c1ccc(Cn2cc(Cl)cn2)cc1`, with > 42 µM (inactive); and `CCC12CN3CCN(CC(C3)/C1=N/NC(=O)c1ccncc1)C2`, with > 42 µM (inactive); and `CC[n+]1c(/C=C/N(C)c2ccccc2)n(-c2ccccc2)c2ccc(-c3nc4ccccc4s3)cc21`, with > 42 µM (inactive).
Then `Nc1nnnn1CC(=O)N/N=C/c1cccs1`, with > 42 µM (inactive).
On to `Cc1cnc(C(=O)OCC(=O)Nc2ccc(C)c(S(=O)(=O)N(C)C)c2)cn1`, for which the AC50 was > 42 µM (inactive).
In the case of `COc1ccc(N2CCN(C(=O)C3CCCN(S(=O)(=O)c4ccc5c(c4)oc(=O)n5C)C3)CC2)cc1` (stereo not given), the AC50 is > 21 µM (inactive).
Then `Cc1cc(Nc2nc3c(c(=O)n(C)c(=O)n3C)n2C)n(-c2ccc(Cl)cc2)n1`, with > 42 µM (inactive); and `COc1cccc(NC(=O)c2nn(C34CC5CC(CC(C5)C3)C4)cc2[N+](=O)[O-])c1`, with > 42 µM (inactive); and `O=C(N/N=C\c1cn(-c2ccccc2)nc1-c1ccccc1)c1ccc(Br)o1`, with > 42 µM (inactive).
Then `CCOC(=O)N1CCN(c2nnnn2-c2ccccc2)CC1`, with > 42 µM (inactive); and `CN(Cc1ccccc1)c1ccc(S(=O)(=O)N2CCC(C(=O)O)CC2)cc1[N+](=O)[O-]`, with > 42 µM (inactive).
On to `CN(C)/C=C/C(=O)c1ccncc1`, for which the AC50 is > 42 µM (inactive).
Then `Cc1cc(NC(=O)c2ccccc2F)n(C(C)(C)C)n1`, with > 42 µM (inactive); and `CC(Oc1ccccc1[N+](=O)[O-])C(=O)N/N=C/c1ccoc1` (stereo not given), with > 42 µM (inactive).
In the case of `CCOCCCNCc1ccc(OCc2ccc(F)cc2)c(OC)c1` it was > 42 µM (inactive).
Turning to `O=C(COc1ccc(-n2cnnn2)cc1)NCCc1ccc(F)cc1`, the AC50 is > 42 µM (inactive).
`O=S(=O)(Nc1cccc2cn[nH]c12)c1ccc(F)cc1`: the AC50 is > 42 µM (inactive).
Then `COc1ccc(C(=O)N(CCc2ccccc2)Cc2ccccc2)c(OC)n1`, with > 42 µM (inactive); and `CS(=O)(=O)N(CC(=O)Nc1ccccc1C(=O)N1CCCC1)c1ccc2c(c1)OCO2`, with > 42 µM (inactive); and `COC(=O)c1cccc(NC(=O)c2ccc[n+]([O-])c2)c1`, with > 42 µM (inactive).
As for `Cc1cc(C)c(NC(=O)CNC(=O)c2cc([N+](=O)[O-])ccc2N2CCOCC2)c(C)c1`, the AC50 was > 42 µM (inactive).
As to `CC(NC(=O)C1CCCN(S(=O)(=O)N2CCOCC2)C1)c1ccccc1` (stereo not given), the AC50 was > 42 µM (inactive).
